Results: ChEMBL document CHEMBL1149697, “Identification of dissociated non-steroidal glucocorticoid receptor agonists” (Bioorg Med Chem Lett, 2007)

Experiments:
Glucocorticoid receptor = target: T1, Glucocorticoid receptor (Homo sapiens, UniProt P04150)
T1 sequence (P04150 whole entry): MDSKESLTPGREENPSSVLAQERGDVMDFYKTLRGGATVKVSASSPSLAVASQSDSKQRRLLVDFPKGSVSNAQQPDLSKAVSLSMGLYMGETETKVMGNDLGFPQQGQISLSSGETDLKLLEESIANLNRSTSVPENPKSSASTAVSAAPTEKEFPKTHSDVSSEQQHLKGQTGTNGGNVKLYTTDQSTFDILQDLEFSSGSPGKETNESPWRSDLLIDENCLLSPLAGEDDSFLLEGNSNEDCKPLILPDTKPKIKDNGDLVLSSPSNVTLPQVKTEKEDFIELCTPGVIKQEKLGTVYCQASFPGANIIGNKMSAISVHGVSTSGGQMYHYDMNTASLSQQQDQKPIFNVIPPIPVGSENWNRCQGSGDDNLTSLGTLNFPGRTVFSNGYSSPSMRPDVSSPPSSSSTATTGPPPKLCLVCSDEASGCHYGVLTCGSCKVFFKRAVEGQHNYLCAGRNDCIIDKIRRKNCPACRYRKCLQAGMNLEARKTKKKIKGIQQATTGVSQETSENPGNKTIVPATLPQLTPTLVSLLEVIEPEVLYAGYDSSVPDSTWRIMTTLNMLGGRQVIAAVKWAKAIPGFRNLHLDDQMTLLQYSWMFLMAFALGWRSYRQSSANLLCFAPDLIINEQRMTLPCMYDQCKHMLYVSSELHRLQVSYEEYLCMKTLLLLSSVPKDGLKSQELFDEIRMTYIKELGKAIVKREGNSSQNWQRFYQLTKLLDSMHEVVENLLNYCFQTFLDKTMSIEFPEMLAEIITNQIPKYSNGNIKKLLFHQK

Progesterone receptor = target: T2, Progesterone receptor (Homo sapiens, UniProt P06401); assay: Displacement of TAMRA labeled mifepristone at human progesterone receptor in insect cell
T2 sequence (P06401 whole entry): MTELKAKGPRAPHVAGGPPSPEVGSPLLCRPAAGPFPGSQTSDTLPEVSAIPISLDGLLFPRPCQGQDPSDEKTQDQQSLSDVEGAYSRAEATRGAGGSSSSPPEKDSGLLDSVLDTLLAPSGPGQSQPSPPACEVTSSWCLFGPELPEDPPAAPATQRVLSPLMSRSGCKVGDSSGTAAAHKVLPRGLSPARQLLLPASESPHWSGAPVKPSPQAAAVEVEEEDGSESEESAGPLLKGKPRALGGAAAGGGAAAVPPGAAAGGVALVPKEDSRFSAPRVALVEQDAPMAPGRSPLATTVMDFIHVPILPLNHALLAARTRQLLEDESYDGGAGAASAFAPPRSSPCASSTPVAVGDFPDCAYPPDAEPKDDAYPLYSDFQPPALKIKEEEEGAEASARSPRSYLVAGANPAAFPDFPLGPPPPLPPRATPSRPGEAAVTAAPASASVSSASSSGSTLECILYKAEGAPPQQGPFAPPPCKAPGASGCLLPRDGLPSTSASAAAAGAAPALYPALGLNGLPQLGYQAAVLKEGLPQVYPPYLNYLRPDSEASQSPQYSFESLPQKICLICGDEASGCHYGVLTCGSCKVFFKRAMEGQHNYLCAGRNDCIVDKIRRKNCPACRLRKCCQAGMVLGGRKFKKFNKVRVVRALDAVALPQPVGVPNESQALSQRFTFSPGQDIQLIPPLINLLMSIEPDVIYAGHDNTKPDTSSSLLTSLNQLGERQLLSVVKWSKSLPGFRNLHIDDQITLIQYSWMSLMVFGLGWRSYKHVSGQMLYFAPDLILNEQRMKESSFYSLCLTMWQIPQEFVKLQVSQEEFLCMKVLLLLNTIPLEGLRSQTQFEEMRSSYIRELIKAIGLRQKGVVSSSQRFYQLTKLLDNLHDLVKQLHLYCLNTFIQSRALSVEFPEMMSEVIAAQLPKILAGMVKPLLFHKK

[1] = target: T3, Mineralocorticoid receptor (Homo sapiens, UniProt P08235); assay: Displacement of TAMRA labeled dexamethasone at human mineralocorticoid receptor in insect cell
T3 sequence (P08235 whole entry): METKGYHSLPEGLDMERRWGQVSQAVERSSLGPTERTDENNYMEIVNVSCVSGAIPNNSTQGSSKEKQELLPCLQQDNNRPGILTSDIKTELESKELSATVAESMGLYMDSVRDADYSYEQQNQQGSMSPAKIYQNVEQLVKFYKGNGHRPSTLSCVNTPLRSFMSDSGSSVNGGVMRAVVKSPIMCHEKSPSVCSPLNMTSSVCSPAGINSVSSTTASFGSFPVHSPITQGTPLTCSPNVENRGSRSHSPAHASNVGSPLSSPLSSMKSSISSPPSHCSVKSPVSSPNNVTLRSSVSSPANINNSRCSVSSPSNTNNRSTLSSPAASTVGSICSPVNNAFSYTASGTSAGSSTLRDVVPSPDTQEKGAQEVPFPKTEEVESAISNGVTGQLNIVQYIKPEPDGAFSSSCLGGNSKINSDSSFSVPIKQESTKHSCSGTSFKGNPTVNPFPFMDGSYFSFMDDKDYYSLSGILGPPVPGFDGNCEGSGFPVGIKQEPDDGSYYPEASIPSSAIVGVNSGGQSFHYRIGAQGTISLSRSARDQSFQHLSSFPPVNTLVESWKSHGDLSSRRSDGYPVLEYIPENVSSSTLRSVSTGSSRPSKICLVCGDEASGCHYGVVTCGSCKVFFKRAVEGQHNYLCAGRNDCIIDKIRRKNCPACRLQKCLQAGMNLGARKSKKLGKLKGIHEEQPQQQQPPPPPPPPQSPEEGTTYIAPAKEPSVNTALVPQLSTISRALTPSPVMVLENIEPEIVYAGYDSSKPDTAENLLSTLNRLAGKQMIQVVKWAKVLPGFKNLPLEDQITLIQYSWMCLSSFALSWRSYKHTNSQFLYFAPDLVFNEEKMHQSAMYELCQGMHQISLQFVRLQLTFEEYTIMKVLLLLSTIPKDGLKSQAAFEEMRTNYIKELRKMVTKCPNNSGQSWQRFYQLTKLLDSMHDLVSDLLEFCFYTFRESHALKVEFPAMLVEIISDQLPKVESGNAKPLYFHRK

HFF [2] = assay: Antiinflammatory activity assessed as inhibition of IL1 stimulated IL6 production in HFF cells by transrepression assay; assay type: functional, cell-based; conditions: Homo sapiens
HFF [3] = assay: Antiinflammatory activity assessed as inhibition of IL6 production in HFF cells by transrepression assay relative to dexamethasone; assay type: functional, Homo sapiens
HFF [4] = assay: Antiinflammatory activity assessed as upregulation of aromatase in HFF cells by transactivation assay; assay type: functional, cell-based; conditions: Homo sapiens
HFF [5] = assay: Antiinflammatory activity assessed as upregulation of aromatase in HFF cells by transactivation assay relative to dexamethasone; assay type: functional, Homo sapiens; set-up: concentration or dose not given beside the values

Row | SMILES | IC50 (Glucocorticoid receptor) [nM] | IC50 (Progesterone receptor) [nM] | IC50 [1] [nM] | EC50 (HFF [2]) [nM] | Efficacy (HFF [3]) [%] | EC50 (HFF [4]) [nM] | Activity (HFF [5]) [%]
1 | COc1ccc(F)cc1C(C)(C)CC(O)(Cc1c(Cl)cccc1Cl)C(F)(F)F (stereo not given) | 580 | > 2000 | 1100 |  |  |  | 
2 | COc1ccc(F)cc1C(C)(C)CC(O)(Cc1ccccc1C)C(F)(F)F (stereo not given) | 855 | > 1130 | > 1130 |  |  |  | 
3 | COc1ccc(F)cc1C(C)(C)CC(O)(Cc1ccc(C)cc1)C(F)(F)F (stereo not given) | 945 | > 2000 | > 2000 |  |  |  | 
4 | C[C@@H]1C[C@H]2[C@@H]3CCC4=CC(=O)C=C[C@]4(C)[C@@]3(F)[C@@H](O)C[C@]2(C)[C@@]1(O)C(=O)CO [DEXAMETHASONE] |  |  |  | 0.5 |  | 2 | 
5 | COc1ccc(F)cc1C(C)(C)CC(O)(CCc1ccccc1)C(F)(F)F (stereo not given) | > 1300 | > 1300 | > 1300 |  |  |  | 
6 | COc1ccc(CC(O)(CC(C)(C)c2cc(F)ccc2OC)C(F)(F)F)cc1 (stereo not given) | 1250 | > 1420 | > 1420 |  |  |  | 
7 | COc1ccc(F)cc1C(C)(C)CC(O)(Cc1cccc(Cl)c1)C(F)(F)F (stereo not given) | 550 | > 2000 | > 2000 |  |  |  | 
8 | COc1ccc(F)cc1C(C)(C)CC(O)(Cc1ccccc1)C(F)(F)F (stereo not given) | 610 | > 1300 | > 1300 |  |  |  | 
9 | COc1ccc(F)cc1C(C)(C)CC(O)(Cc1ccc2ccccc2c1)C(F)(F)F (stereo not given) | 275 | > 2000 | > 2000 |  |  |  | 
10 | COc1ccc(F)cc1C(C)(C)CC(O)(c1ccccc1)C(F)(F)F (stereo not given) | > 1600 | > 1600 | 1600 |  |  |  | 
11 | COc1ccc(F)cc1C(C)(C)CC(O)(Cc1cccc(C)c1)C(F)(F)F (stereo not given) | 580 | > 1050 | > 1050 |  |  |  | 
12 | COc1ccc(F)cc1C(C)(C)CC(O)(Cc1ccccc1F)C(F)(F)F (stereo not given) | 370 | > 2000 | 1350 |  |  |  | 
13 | COc1ccc(F)cc1C(C)(C)CC(O)(C(=O)Nc1ccc2c(=O)onc(C)c2c1)C(F)(F)F (stereo not given) |  |  |  | > 2000 | 20 | > 2000 | 0
14 | COc1ccc(F)cc1C(C)(C)CC(O)(Cc1ccc(C#N)c2ccccc12)C(F)(F)F (stereo not given) | 21 | 325 | 430 | 70 | 92 | 260 | 103
15 | COc1ccc(F)cc1C(C)(C)CC(O)(CCCc1ccccc1)C(F)(F)F (stereo not given) | 1130 | > 740 | > 740 |  |  |  | 

Now from value to molecule, other results behind:

Row | IC50 (Glucocorticoid receptor) [nM] | IC50 (Progesterone receptor) [nM] | IC50 [1] [nM] | SMILES | EC50 (HFF [2]) [nM] | Efficacy (HFF [3]) [%] | EC50 (HFF [4]) [nM] | Activity (HFF [5]) [%]
16 | 45 | > 2000 | 535 | COc1ccc(F)cc1C(C)(C)CC(O)(Cc1cc(Cl)ccc1Cl)C(F)(F)F (stereo not given) |  |  |  | 
17 | 81 | > 2000 | 400 | COc1ccc(F)cc1C(C)(C)CC(O)(Cc1cccc(C#N)c1)C(F)(F)F (stereo not given) |  |  |  | 
18 | 340 | > 2000 | 1800 | COc1ccc(F)cc1C(C)(C)CC(O)(Cc1ccc(Cl)cc1)C(F)(F)F (stereo not given) |  |  |  | 
19 | 27 | > 2000 | 730 | COc1ccc(F)cc1C(C)(C)CC(O)(Cc1cc(Cl)cc(C#N)c1)C(F)(F)F (stereo not given) | > 2000 | 46 | 4750 | 53
20 | 68 | 665 | 875 | COc1ccc(F)cc1C(C)(C)CC(O)(Cc1ccc(Cl)cc1Cl)C(F)(F)F (stereo not given) |  |  |  | 
21 | 30 | 345 | 510 | COc1ccc(F)cc1C(C)(C)CC(O)(Cc1ccc(C#N)cc1)C(F)(F)F (stereo not given) | > 2000 | 0 | > 2000 | 0
22 | 20 | > 2000 | 650 | COc1ccc(F)cc1C(C)(C)CC(O)(Cc1ccc(C=O)cc1)C(F)(F)F (stereo not given) |  |  |  | 
23 | 58 | 1200 | 1050 | COc1ccc(F)cc1C(C)(C)CC(O)(Cc1ccc(C)c2ccccc12)C(F)(F)F (stereo not given) | > 2000 | 9 |  | 
24 | 19 | 1800 | 345 | COc1ccc(F)cc1C(C)(C)CC(O)(Cc1ccc(C=O)cc1Cl)C(F)(F)F (stereo not given) |  |  |  | 
25 | 17 | 140 | 320 | COc1ccc(F)cc1C(C)(C)CC(O)(Cc1ccc(C#N)cc1Cl)C(F)(F)F (stereo not given) | 20 | 60 | 30 | 20
26 | 64 | > 2000 | 450 | COc1ccc(F)cc1C(C)(C)CC(O)(Cc1c(C)ccc2ccccc12)C(F)(F)F (stereo not given) |  |  |  | 
27 | 46 | > 2000 | 940 | COc1ccc(F)cc1C(C)(C)CC(O)(Cc1cc(C)cc(Cl)c1)C(F)(F)F (stereo not given) | 125 | 79 | 245 | 80
28 | 60 | > 2000 | 760 | COc1ccc(F)cc1C(C)(C)CC(O)(Cc1cc(Cl)cc(Cl)c1)C(F)(F)F (stereo not given) |  |  |  | 
29 | 205 | > 512 | > 512 | COc1ccc(F)cc1C(C)(C)CC(O)(Cc1ccccc1Br)C(F)(F)F (stereo not given) |  |  |  | 
30 | 76 | 1300 | 900 | COc1ccc(F)cc1C(C)(C)CC(O)(Cc1cccc(Cl)c1Cl)C(F)(F)F (stereo not given) |  |  |  | 
31 | 22 | 280 | 500 | COc1ccc(F)cc1C(C)(C)CC(O)(Cc1ccc(C#N)cc1F)C(F)(F)F (stereo not given) | > 2000 | 40 | 660 | 15
32 | 120 | > 2000 | 1400 | COc1ccc(F)cc1C(C)(C)CC(O)(Cc1cccc2ccccc12)C(F)(F)F (stereo not given) |  |  |  | 
33 | 101 | > 2000 | 715 | COc1ccc(F)cc1C(C)(C)CC(O)(Cc1ccccc1Cl)C(F)(F)F (stereo not given) |  |  |  | 
